# Measured values published in patent US20010005511A1, “Insect control by insect growth regulators broadcast by volatilization” (Wellmark International, priority 1999, published 2001).
# “And” between values parts separate entries of the source, which are not always exact repeats. Equal entries are not always repeated. Where two headings read alike, the source gives them in different places.
# How the values were obtained:
# fleas [1] = assay: Flea control on carpet circles by S-methoprene volatilized by a plug-in heater; assay type: in vivo, Ctenocephalides felis; conditions: for Adult Flea Emergence (From 100 Eggs), Individual Tests: 0.1 g, room 78.4 m^3, activation time 4 h, three carpet circles; for Emax: Ctenocephalides felis
# Protocol: This example illustrates the efficacy of S-methoprene volatilized by a plug-in heater designed for use with mosquito repellents. The heater was an AgRevo heater, 110-120v, 50-60 Hz, 5 watts, purchased from DBK Espana Household Technologies, and the tests were performed in the same test room used for Example 1, adjusted to a floor area of 18.6 m^2 (200 ft^2), resulting in a room volume of 78.4 m^3 (2,800 ft^3). The S-methoprene was placed in the heater by wetting a Whatman filter pad consisting of 50% cellulose and 50% glass fiber, the wetting solution consisting of 8.8% (by weight) S-methoprene in neat 1-methoxy 2-propanol. The amount of solution used was 1.2 g, resulting in 0.1 g of S-methoprene in the pad. Carpet circles were used as in the preceding examples, and all other procedures were the same as those in Example 1. Carpet circles were placed at distances of 0.61 m (2 ft), 3.0 m (10 ft), and 6.1 m (20 ft) from the plug-in-heater, with three carpet circles at each location. Three additional carpet circles were retained outside the room to avoid exposure to the volatilized S-methoprene for use as controls. The activation time for the test circles was four hours. Efficacy was determined by comparing the results from the test circles to those from the control circles.
# fleas [2] = assay: Residual flea control on carpet circles by S-methoprene volatilized from a 60-watt light bulb in a residential living room; assay type: in vivo, Ctenocephalides felis; conditions: for Number of Adult Fleas Emerging From 100 Eggs, individual test samples: 0.1 g (Solution B), 4 h exposure, 6.1 m from bulb, samples 1-6; for Percent Control (Arithmetic) / Percent Control (Geometric): relative to control samples
# Protocol: This example is a further illustration of the efficacy of S-methoprene volatilized by heating from an incandescent light bulb in the control of fleas. The test was performed in a conventional residential living room with a floor area of 21.5 m^2 (231 ft^2). A single standard 60-watt incandescent bulb was used as the heat source, with a felt ring containing 0.1 g of S-methoprene (using Solution B of Example 1). The temperature of the bulb surface at the location of the felt ring was approximately 200° F. (93° C.). The exposure time (the length of time that the lamp containing the bulb was turned on) was four hours. The carpet circles were placed twenty feet (6.1 m) from the bulb.
# After exposure to the volatilized S-methoprene, the carpet circles were each aged (allowed to rest without additional exposure) for 1, 2, 3, or 4 months. They were then challenged by infestation with flea eggs in the same manner as described above in Example 1. The results, expressed in terms of the number of adult fleas emerging after 35 days, are listed in Table II, together with corresponding results from control samples.
# [3] = system: fleas (Ctenocephalides felis); assay: Flea control on carpet circles by S-methoprene volatilized from a 100-watt light bulb in a test room; assay type: in vivo; conditions: for Efficacy at Indicated Distance from Source, 35-Day Residual Effect: carpet rested 35 days before infestation
# Protocol: This example illustrates the efficacy of S-methoprene volatilized by heating from an incandescent light bulb in the control of fleas (Ctenocephalides felis).
# Testing was performed in a test room measuring 8.5 m (28 ft.) (length)×6.1 m (20 ft) (width)×4.3 m (14 ft.) (height) with a movable partition to reduce the room to the desired size. For this series of tests, the partition was placed in various positions such that the horizontal area of the room was variously:
# A single standard 100-watt incandescent light bulb was used as the heating source, and a felt ring that was cut to fit on the top of the light bulb was used as the support for the liquid S-methoprene solution. Three liquid S-methoprene solutions were used as follows:
# Solution A: S-methoprene and IRGANOX® L57 (in a weight ratio of 50:1), to achieve a solution of […] S-methoprene by weight. IRGANOX ® L57 (Ciba-Geigy Corp., Hawthorne, N.Y., USA) is a liquid aminic antioxidant in the form of an alkylated diphenylamine. No solvents were used.
# Solution B: S-methoprene and BHT (in a weight ratio of 50:1), dissolved in a mixture of 1-methoxy-2-propanol and deionized water (in a weight ratio of 84:16) to achieve a solution of 5.2% S-methoprene by weight.
# Solution C: S-methoprene and BHT (in a weight ratio of 50:1), dissolved in a mixture of 1-methoxy-2-propanol and Belmay B-5 Fragrance (in a weight ratio of 44:56) to achieve a solution of 5% S-methoprene by weight.
# As the infested target, circular pieces of carpet were used. Each piece was 7.6 cm (3 inches) in diameter cut from a 1.3-cm (0.5-inch) pile nylon carpet, and individual circles were placed at distances of 0.61 m (2 ft), 3.0 m (10 ft), and 6.1 m (20 ft) from the light bulb.
# The felt ring in each experiment was wetted with 2 g of solution. […] The bulb was turned on for periods of time ranging from 4 h to 120 h. This is referred to below as the “Activation Time.” The temperature of the bulb surface at the location of the felt ring was approximately 215° F. (102° C.). In some of the tests, a horizontal barrier was placed above the carpet circles at distances of 5.1 cm (2 inches) or 7.6 cm (3 inches), to simulate penetration of the S-methoprene to difficult-to-reach places such as under furniture. The carpet circles were placed in two positions below the barrier—one in which the center of the carpet circle was 30 cm (12 inches) from the edge of the barrier (identified below as “Position 1”), and the other in which the center of the carpet circle was 7.6 cm (3 inches) from the edge of the barrier (identified below as “Position 2”).
# After these exposures, the carpet circles were removed from the room, and sprinkled with flea rearing media and infested with 100 viable flea eggs. Similar carpet circles that had not undergone exposure to the volatilized S-methoprene were similarly sprinkled and infested. The exposed (test) and unexposed (control) carpet circles were then placed in a warm (27° C., 80° F.), high humidity (80% relative humidity) room for 35 days to allow any viable flea eggs in the circles to develop to adult fleas. In some of the tests, the carpet circles were allowed to rest for 35 days after removal from the treatment room before being infested with the flea eggs, to test for residual efficacy. In all cases, efficacy was determined by comparing the results from test circles to those from the control circles.
# [4] = 0.1 g, room 78.4 m^3, activation time 4 h, carpet centre 7.6 cm from barrier edge, 3.0 m
# [5] = 0.1 g, room 78.4 m^3, activation time 4 h, carpet centre 30 cm from barrier edge, 3.0 m
structure (smiles),measurement,setting,value
"COC(C)(C)CCC[C@H](C)C/C=C/C(C)=C/C(=O)OC(C)C [S-methoprene, (E,E)-(7S)-11-methoxy-3,7,11-trimethyldodeca-2,4-dienoate, isopropyl ester]","Adult Flea Emergence (From 100 Eggs), Average",fleas [1]; 0.61 m from heater,1
same,"Adult Flea Emergence (From 100 Eggs), Individual Tests",fleas [1]; 0.61 m from heater,0/1/2
same,"Adult Flea Emergence (From 100 Eggs), Average",fleas [1]; 3.0 m from heater,0.3
same,"Adult Flea Emergence (From 100 Eggs), Individual Tests",fleas [1]; 3.0 m from heater,1/0/0
same,"Adult Flea Emergence (From 100 Eggs), Average",fleas [1]; 6.1 m from heater,0.3
same,"Adult Flea Emergence (From 100 Eggs), Individual Tests",fleas [1]; 6.1 m from heater,1/0/0
same,Emax,"fleas [1]; 0.61 m from heater, read-out: % Efficacy (Relative to Control)",92.7%
same,Emax,"fleas [1]; 3.0 m from heater, read-out: % Efficacy (Relative to Control)",97.8%
same,Emax,"fleas [1]; 6.1 m from heater, read-out: % Efficacy (Relative to Control)",97.8%
same,Emax,"fleas [1]; all distances from heater, read-out: % Efficacy (Relative to Control), Overall",96.1%
same,"Flea control, result in words",fleas [1]; all distances from the plug-in heater,excellent control at all distances
same,"Number of Adult Fleas Emerging From 100 Eggs, Mean (Arithmetic), test samples",fleas [2]; 1 month after treatment,2.8
same,"Number of Adult Fleas Emerging From 100 Eggs, Mean (Geometric), test samples",fleas [2]; 1 month after treatment,2.7
same,"Number of Adult Fleas Emerging From 100 Eggs, individual test samples",fleas [2]; 1 month after treatment,3 (2×) and 2 (3×) and 5
same,Percent Control (Arithmetic),fleas [2]; 1 month after treatment,95.6%
same,Percent Control (Geometric),fleas [2]; 1 month after treatment,95.8%
same,"Number of Adult Fleas Emerging From 100 Eggs, Mean (Arithmetic), test samples",fleas [2]; 2 months after treatment,3.2
same,"Number of Adult Fleas Emerging From 100 Eggs, Mean (Geometric), test samples",fleas [2]; 2 months after treatment,1.9
same,"Number of Adult Fleas Emerging From 100 Eggs, individual test samples",fleas [2]; 2 months after treatment,5 and 2 (2×) and 0 and 4 and 6
same,Percent Control (Arithmetic),fleas [2]; 2 months after treatment,95.5%
same,Percent Control (Geometric),fleas [2]; 2 months after treatment,97.3%
same,"Number of Adult Fleas Emerging From 100 Eggs, Mean (Arithmetic), test samples",fleas [2]; 3 months after treatment,3.7
same,"Number of Adult Fleas Emerging From 100 Eggs, Mean (Geometric), test samples",fleas [2]; 3 months after treatment,0.7
same,"Number of Adult Fleas Emerging From 100 Eggs, individual test samples",fleas [2]; 3 months after treatment,1 and 0 (3×) and 5 and 16
same,Percent Control (Arithmetic),fleas [2]; 3 months after treatment,94.0%
same,Percent Control (Geometric),fleas [2]; 3 months after treatment,98.9%
same,"Number of Adult Fleas Emerging From 100 Eggs, Mean (Arithmetic), test samples",fleas [2]; 4 months after treatment,4.0
same,"Number of Adult Fleas Emerging From 100 Eggs, Mean (Geometric), test samples",fleas [2]; 4 months after treatment,3.0
same,"Number of Adult Fleas Emerging From 100 Eggs, individual test samples",fleas [2]; 4 months after treatment,1 (2×) and 8 and 4 (2×) and 6
same,Percent Control (Arithmetic),fleas [2]; 4 months after treatment,94.3%
same,Percent Control (Geometric),fleas [2]; 4 months after treatment,95.7%
same,"Flea control, result in words","fleas [2]; all cases, 1-4 months after treatment",excellent control was achieved in all cases
same,Persistence of the treatment,fleas [2]; carpet circles aged after exposure,persistent for up to four months
same,"Efficacy Under 2-in. Overhead Barrier, Position 2",[3]; [4],Position 2: 96%
same,"Efficacy Under 3-in. Overhead Barrier, Position 2",[3]; [4],Position 2: 100%
same,"Efficacy Under 2-in. Overhead Barrier, Position 1",[3]; [5],Position 1: 99%
same,"Efficacy Under 3-in. Overhead Barrier, Position 1",[3]; [5],Position 1: 100%
same,Efficacy at Indicated Distance from Source,"[3]; 0.1 g, room 78.4 m^3, activation time 24 h, 0.61 m from source",99%
same,"Efficacy at Indicated Distance from Source, 35-Day Residual Effect","[3]; 0.1 g, room 78.4 m^3, activation time 24 h, 0.61 m",96%
same,Efficacy at Indicated Distance from Source,"[3]; 0.1 g, room 78.4 m^3, activation time 24 h, 3.0 m from source",99%
same,"Efficacy at Indicated Distance from Source, 35-Day Residual Effect","[3]; 0.1 g, room 78.4 m^3, activation time 24 h, 3.0 m",96%
same,Efficacy at Indicated Distance from Source,"[3]; 0.1 g, room 78.4 m^3, activation time 24 h, 6.1 m from source",99%
same,"Efficacy at Indicated Distance from Source, 35-Day Residual Effect","[3]; 0.1 g, room 78.4 m^3, activation time 24 h, 6.1 m",97%
same,Efficacy at Indicated Distance from Source,"[3]; 0.1 g, room 117.6 m^3, activation time 4 h, 0.61 m from source",100%
same,Efficacy at Indicated Distance from Source,"[3]; 0.1 g, room 117.6 m^3, activation time 4 h, 3.0 m from source",99.4%
same,Efficacy at Indicated Distance from Source,"[3]; 0.1 g, room 117.6 m^3, activation time 4 h, 6.1 m from source",99.4%
same,Efficacy at Indicated Distance from Source,"[3]; 0.1 g, room 186.8 m^3, activation time 4 h, 0.61 m from source",100%
same,Efficacy at Indicated Distance from Source,"[3]; 0.1 g, room 186.8 m^3, activation time 4 h, 3.0 m from source",99.6%
same,Efficacy at Indicated Distance from Source,"[3]; 0.1 g, room 186.8 m^3, activation time 4 h, 6.1 m from source",100%
same,Efficacy at Indicated Distance from Source,"[3]; 0.1 g, room 196 m^3, activation time 4 h, 0.61 m from source",95%
same,Efficacy at Indicated Distance from Source,"[3]; 0.1 g, room 196 m^3, activation time 4 h, 3.0 m from source",97.3%
same,Efficacy at Indicated Distance from Source,"[3]; 0.1 g, room 196 m^3, activation time 4 h, 6.1 m from source",96.5%
same,Efficacy at Indicated Distance from Source,"[3]; 1.8 g S-methoprene volatilized, room 78.4 m^3, activation time 120 h, 0.61 m from source",100%
same,Efficacy at Indicated Distance from Source,"[3]; 1.8 g S-methoprene volatilized, room 78.4 m^3, activation time 120 h, 3.0 m from source",100%
same,Efficacy at Indicated Distance from Source,"[3]; 1.8 g S-methoprene volatilized, room 78.4 m^3, activation time 120 h, 6.1 m from source",100%
same,"Flea control, result in words","[3]; all cases, including lower dosage rate, 35-day residual effect, overhead barrier",excellent control was achieved in all cases
